For test [1], the system named is female Balb/c mice. The test can be described thus: Dextran sulfate-induced colitis, disease score. The class given is in vivo. The settings on record: 10 μg single inhibitor i.p., three days from day 5, score on day 7; insignificant. From the text:
Therapeutic Effect of the Combined Inhibition of the Alanyl Aminopeptidases and of Enzymes Having an Analogous Effect as Well as of Dipeptidyl Peptidase IV and of Enzymes Having an Analogous Effect on the Dextran Sulfate-Induced Colitis in Mice (Animal Model of Chronic Inflammatory Intestinal Diseases)
An inflammation relating predominantly to the colon (equivalent to the disease of human Colitis ulcerosa) was induced by an administration of 3% sodium dextran sulfate dissolved in the drinking water of female Balb/c mice having an age of 8 weeks. […] The peptidase inhibitors (or phosphate-buffered saline as a placebo) were administered intraperitoneally from day 5 on for three successive days. The degree of the disease was determined in accordance with an acknowledged evaluation system (score). The following parameters were considered when determining the score: Consistency of the excrements (solid=0 points (pts.); pasty=2 pts.; liquid/like diarrhea=4 pts.); detection of blood in the excrements (no blood=0 pts.; occult blood=2 pts.; evident=4 pts.); loss of weight (0-5%=0 pts.; 5 to 10%=1 pts.; 10-15%=2 pts.; 15-20%=3 pts.; >20%=4 pts.). Healthy animals have a score value of 0 pts.; the maximum value are 12 pts. From 10 pts. on, the disease is lethal. In the course of the disease, the score value increased due to the change of the excrement parameters. […]

In test [2] the test system is female Balb/c mice. The test can be described thus: Ovalbumine-induced asthma bronchiale, pulmonal function (EF50) and eosinophilia. It is filed as in vivo. The settings on record: i.p. 0.1 mg of each inhibitor, days 28-35; FIG. 3 A. How it is done:
Therapeutic effect of the combined inhibition of alanyl aminopeptidases and of enzymes having an analogous effect as well as of dipeptidyl peptidase IV and of enzymes having an analogous effect on the ovalbumine-induced asthma bronchiale ib mice (animal model of human asthma bronchiale).
Female Balb/c mice were sensitized for the antigen ovalbumine capable of inducing asthma bronchiale by an intreperitoneal administration of 10 μg ovalbumine on the days 0, 14 and 21. On day 27/28, the animals received a boostering dose of ovalbumine by inhalation [vD3]. After an intreperitoneal administration of the peptidase inhibitors on the days 28-35, there was effected an intranasal ovalbumine challenge on day 35, as well as a check of the allergic premature reaction via the pulmonal function. There were measured: the average expiratory flux (EF50), the tidal volume, the respiration rate and the minute volume as well as the number of eosinophilic granulocytes in the bronchoalveolar lavage.
8 to 10 animals were used per experimental group. By way of example, in FIG. 3 A, there is summarized the effect of the peptidase inhibitors on the reduction of the EF50 value. […] Group E represents animals which were not sensitized by OVA, but which were subjected—beyond that—all procedures to which the animal groups A to D were subjected.

As for `N[C@@H](CCCCNC(=O)OCc1ccc([N+](=O)[O-])cc1)C(=O)N1CCCC1` [Lys[Z(NO2)]pyrrolidide], the “reduction of the heaviness of the disease (colitis score)” value in test [1] is given as −12.3%. The “effect on the reduction of the EF50 value (pulmonal function)” value in test [2] is listed as “showed a therapeutic effect”.

Regarding `CCCCC[C@H](CC(=O)NO)C(=O)N[C@H](C(=O)N1CCC[C@H]1CO)C(C)C` [Actinonine], in test [1], the “reduction of the heaviness of the disease (colitis score)” value is −16.5%. Further, the “effect on the reduction of the EF50 value (pulmonal function)” value in test [2] is reported as “showed a therapeutic effect”.

These data come from patent publication US20070037752A1, “Novel alanyl-amino peptidase inhibitors for functionally influencing different cells and treating immunological, inflammatory, neuronal, and other diseases” (priority 2003, published 2007).
